Square brackets hold non-standard residues; d marks the D form. Peptide text beside a SMILES is read from it. * marks the point of attachment. dPhe(4-NHCONH2) = NC(=O)Nc1ccc(C[C@@H](N)C(=O)O)cc1; Dihydroorotyl(S) = O=C1C[C@@H](C(=O)*)NC(=O)N1; dPhe(4-Cl) = N[C@H](Cc1ccc(Cl)cc1)C(=O)O; Phe(4-NH2) = Nc1ccc(C[C@H](N)C(=O)O)cc1; d2Nal = N[C@H](Cc1ccc2ccccc2c1)C(=O)O; Lys(iPr) = CC(C)NCCCC[C@H](N)C(=O)O; d3Pal = N[C@H](Cc1cccnc1)C(=O)O
Key:
[1] = 1H NMR in neat H2O, aggregation with concentration and time; type: physicochemical
Description: (§1) ^1H NMR experiments were performed at peptide concentrations of 0.1, 0.5, 1, 2, 5, and 10 mM in 100% H2O. Peptide solutions were prepared in glass vials without pH adjustments, as the addition of concentrated acid or base results in local pH variations that might induce aggregation. Diffusion NMR experiments were performed at peptide concentrations of 3 and 10 mM in 100% D2O. Thus, the diffusion NMR results may not be perfectly representative of the situation in the samples in H2O, but general conclusions can still be drawn.
(§2) The samples were gently agitated, by manual swirling, until the solution appeared visually homogeneous and 450 μL of each sample was transferred to disposable 5 mm NMR tubes (Type 5TA 178 mm from Teknolab Sorbent, Sweden). Aliquots were pipetted slowly to reduce the risk of possible shear-induced aggregation. The time between sample preparation and the start of the NMR measurement was around 15 min. On selected samples, the approximate pH was assessed with pH indicator strips (Scharlau, pH 2.0–9.0, TP0209000S) after aliquots for the NMR samples were taken out.
NMR experiments were performed at 25 °C on either a Varian Unity Inova 500 MHz spectrometer equipped with a Z-spec DBG500-5EF 5 mm dual broadband gradient probe or a Bruker AVANCE III HD 500 MHz spectrometer equipped with a BBO probe, Bruker SMART probe. Spectra were recorded with an excitation sculpting sequence for solvent suppression.[40] […] On the Varian, 300 scans were used on samples of 0.1–1 mM and 64 on 1–10 mM (1 mM was measured using both settings to bridge the concentration series and ensure comparability), which gave adequate signal for unaggregated samples. […]
The absolute integral values (IntC), at each investigated concentration, for signals arising from the methyl groups of leucine (6H; for D-Phe^6-GnRH, cetrorelix, and degarelix) or nor-leucine (3H; for ozarelix) were determined. […] Additionally, IntC of the signal from the acetate counterion (a singlet) were determined for all peptides. […]

[2] = set-up: method as in PMID 33586081; conditions: seen as reduction in total detectable signal and decrease in fraction of sharp signals; cited from earlier work
[3] = Approximate sample pH by pH indicator strips; type: physicochemical; conditions: all concentrations and time points investigated, H2O
[4] = Visual inspection of samples for turbidity and viscosity; type: physicochemical; conditions: all samples 0.1-10 mM acetate salt in 100% H2O, no buffer, no pH adjustment; NMR tube in light box compared with pure water; room temperature
Description: as §1, §2
The NMR tubes containing samples were visually inspected in a light box and compared to an NMR tube containing pure water to simplify identification of visually detectable aggregates.

Concentration at which a distinct group of broad peaks at 1.2-1.6 ppm (intermediately sized aggregates) appears ([1]; 1H NMR, 25 °C, 100% H2O): ≥ 1000 µM
Change of 1H NMR spectra over time, 5 and 10 mM samples ([1]; 5 and 10 mM in 100% H2O, over investigated timespan (ozarelix: rapid 4 scan experiments about 15 and 25 min after preparation, 24 h)): increased notably in intensity
Fate of acetate counterions in the peptide aggregates formed (1H NMR acetate signal) ([1]; acetate salts, 0.1-10 mM in 100% H2O, 25 °C): exclusion
Sample pH [3]: ~ 5.5
Visual appearance of samples over the investigated time span [4]: visually clear
SMILES: CC(=O)N[C@H](Cc1ccc2ccccc2c1)C(=O)N[C@H](Cc1ccc(Cl)cc1)C(=O)N[C@H](Cc1cccnc1)C(=O)N[C@@H](CO)C(=O)N[C@@H](Cc1ccc(NC(=O)[C@@H]2CC(=O)NC(=O)N2)cc1)C(=O)N[C@H](Cc1ccc(NC(N)=O)cc1)C(=O)N[C@@H](CC(C)C)C(=O)N[C@@H](CCCCNC(C)C)C(=O)N1CCC[C@H]1C(=O)N[C@H](C)C(N)=O [degarelix] (Ac-[d2Nal][dPhe(4-Cl)][d3Pal]S[Phe(4-NH2)](Dihydroorotyl(S))[dPhe(4-NHCONH2)]L[Lys(iPr)]P[dA]-NH2)
Effect of buffer or background salt on aggregation (1H NMR) [2]: strongly enhance aggregation

Source: paper PMC8905580, “Aggregation Behavior of Structurally Similar Therapeutic Peptides Investigated by ^1H NMR and All-Atom Molecular Dynamics Simulations” (Molecular Pharmaceutics, 2022)
